Data reported in patent US20180369244A1, “BTK Inhibitors to Treat Solid Tumors Through Modulation of the Tumor Microenvironment” (Acerta Pharma B.V., priority 2014, published 2018).
Values belong to the molecule of their own block, whether it stands above or below them.

Columns and labels:
[1] = system: human platelet-mediated thrombosis; conditions: mouse, in vivo
Experimental: Injury to the vessel wall of arterioles ([…] diameter) was performed using a pulsed nitrogen dye laser (440 nm, Photonic Instruments) applied through a 20× water-immersion Olympus objective (LUMPlanF1, 0.5 numerical aperature (NA)) of a Zeiss Axiotech vario microscope. […] The extent of thrombus formation was assessed for 2 minutes after injury and the area (μm^2) of coverage determined (Image IQ, Andor Technology).
The BTK inhibitor-treated human platelets were fluorescently labeled and infused continuously through a catheter inserted into the femoral artery.

B cell receptor = experiment: Whole blood B cell receptor signalling, CD69 on CD19+ B cells; format: cell-based; conditions: 2 h incubation, anti-human IgD 18 h
Experimental: Blood from four healthy donors was incubated for 2 hours with the compounds shown over a concentration range, and then stimulated with anti-human IgD [10 μg/mL] for 18 hours. The mean fluorescent intensity (MFI) of CD69 (and CD86, data not shown) on gated CD19+ B cells was measured by flow cytometry. MFI values were normalized so that 100% represents CD69 level in stimulated cells without inhibitor, while 0% represents the unstimulated/no drug condition. […]

[2] = system: GPVI platelet aggregation; experiment: GPVI platelet aggregation (convulxin-induced); format: cell-based, human
Experimental: GPVI platelet aggregation was measured for Formula (II) and Formula (X) (ibrutinib). Blood was obtained from untreated humans, and platelets were purified from […] by centrifugation. Cells were resuspended to a final concentration of […] in buffer containing 145 mmol/L NaCl, 10 mmol/L HEPES, 0.5 mmol/L Na2HPO4, 5 mmol/L KCl, 2 mmol/L MgCl2, 1 mmol/L CaCl2, and 0.1% glucose, at pH 7.4. Stock solutions of Convulxin (CVX) GPVI were prepared on the day of experimentation and added to platelet suspensions 5 minutes (37° C., 1200 rpm) before the induction of aggregation. Aggregation was assessed with a Chronolog Lumi-Aggregometer (model 540 VS; Chronolog, Havertown, Pa.) and permitted to proceed for 6 minutes after the addition of agonist. The results are reported as maximum percent change in light transmittance from baseline with platelet buffer used as a reference.
In FIG. 23, the results of CVX-induced (250 ng/mL) human platelet aggregation results before and 15 minutes after administration of the BTK inhibitors to 6 healthy individuals are shown.

NK cells = experiment: Antibody-dependent NK cell degranulation (CD107a flow cytometry); format: cell-based, human; conditions: DHL-4 target cells
Raji cells = experiment: Rituximab ADCC chromium release assay; format: cell-based, human; conditions: 1 μM
From the text: Cell culture conditions were as follows. […] The HER18 cells were maintained in DEM supplemented with fetal bovine serum, penicillin-streptomycin and. Prior to assay, HER18 cells were harvested using trypsin-EDTA, washed with phosphate-buffered saline (PBS) containing 5% serum and viable cells were counted. For culture of primary target cells, peripheral blood from CLL patients was subject to density centrifugation to obtain peripheral blood mononuclear cells (PBMC). Cell preparations were washed and then subject to positive selection of CD5+CD19^+ CLL cells using magnetic beads (MACS, Miltenyi Biotech). Cell preparations were used fresh after selection. NK cells from CLL patients and healthy volunteers were enriched from peripheral blood collected in sodium citrate anti-coagulant tubes and then subject to density centrifugation. Removal of non NK cells was performed using negative selection by MACS separation. Freshly isolated NK cells were washed three times, enumerated, and then used immediately for ADCC assays.
ADCC assays were performed as follows. Briefly, target cells (Raji or primary CLL) were labeled by incubation at 37° C. with 100 μCi ^51Cr for 4 hours prior to co-culture with NK cells. Cells were washed, enumerated, and then added in triplicate to prepared 96-well plates containing treated NK cells at an effector:target (E:T) ratio of 25:1. […] The effect of NK cell natural cytotoxicity was assessed in wells containing no rituximab. Cultures were incubated at 37° C. for 4 hours, and then centrifuged. Supernatants were harvested and ^51Cr release was measured by liquid scintillation counting. All experiments were performed in triplicate.

CD4+ T cells = experiment: Th17 and Treg development from CD4+ T cells; format: cell-based
Experimental: Enriched CD4^+ T cells are plated on 24-well culture dishes that have been precoated 2 hr with 250 μL anti-TCRβ (0.5 μg/mL) plus anti-CD28 (5 μg/mL) at 37° C. in PBS. The cells are then supplemented with media containing BTK inhibitors along with the skewing cytokines as indicated in the following. The Th17 and Treg cultures are grown for 4 days before analysis. The cells are maintained for an additional 3 days with skewing cytokines (Th17; 20 ng/mL IL-6, 0.5 ng/mL TGF-β, 5 μg/mL IL-4, 5 μg/mL IFN-γ and Treg; 0.5 ng/mL TGF-β, 5 μg/mL IL-4, 5 μg/mL IFN-γ) and are supplemented with IL2 as a growth factor.

CD8+ T cells [3] = experiment: CD8+ T cell viability; format: cell-based; conditions: 4 days culture
Experimental: Total T cells were plated on anti-TCR and anti-CD28 coated wells in the presence of both BTK inhibitors. Neutral culture conditions were used that will not polarize T cells to a helper lineage. The cells are grown for 4 days and are then stained with anti-CD4, anti-CD8 and LIVE/DEAD reagent to determine if the drugs have selective effects on either the CD4^+ or CD8^+ cells. Statistical significance was calculated using the Mann Whitney T-test. […]

CD8+ T cells [4] = experiment: Cytotoxic T cell (CTL) assay; format: cell-based; conditions: 500 nM
Experimental: CD8^+ T cells have at least two primary effector functions: (1) produce large amounts of IFN-γ (which activates macrophages), and (2) cytolytic activity. […] The targets were B lymphoblasts from lipopolysaccharide (LPS) treated cultures. The assay was performed by incubating different ratios of effectors:targets for 4 hours.

CLL, MCL, NHL patients = conditions: monotherapy, dose levels through 840 mg; cited from earlier work
CLL = conditions: cited from earlier work
[5] = Phase 1 portion, relapsed/refractory CLL (n=13)

effect on thrombus formation [1]: interfere with thrombus formation
EC50 (B cell receptor): 121 nM
Molecule: C=CC(=O)Nc1cccc(Nc2nc(Nc3ccc(OCCOC)cc3)ncc2F)c1 [CC-292, N-(3-((5-fluoro-2-((4-(2-methoxyethoxy)phenyl)amino)pyrimidin-4-yl)amino)phenyl)acrylamide]

Molecule: C=CC(=O)N1CCC[C@@H](n2nc(-c3ccc(Oc4ccccc4)cc3)c3c(N)ncnc32)C1 [ibrutinib, 1-[(3R)-3-[4-amino-3-(4-phenoxyphenyl)-1H-pyrazolo[3,4-d]pyrimidin-1-yl]piperidin-1-yl]prop-2-en-1-one, reference compound]
GPVI platelet aggregation ([2]; FIG. 22 and FIG. 23): significantly inhibits GPVI platelet aggregation
IC50 ([2]; Homo sapiens, Platelet, FIG. 22): 130 nM
effect on thrombus formation [1]: interfere with thrombus formation
reduction of rituximab-stimulated NK cell degranulation (NK cells): ~50%
rituximab ADCC, NK cell activity (Raji cells; FIG. 31): completely inhibited ADCC
antibody-dependent lysis of rituximab-coated Raji cells (Raji cells; healthy donor NK cells): strongly inhibited the antibody-dependent lysis of target cells
EC50 (B cell receptor): 6.1 nM
Th17 and Treg development (CD4+ T cells): a profound inhibition of Th17 cells and an increase in Treg development
CD8+ T cell viability (CD8+ T cells [3]): strong, negative effect
CD8+ T cell function as % cytotoxicity (CD8+ T cells [4]): affects CD8^+ T cell function
CD8+ T cell function as IFN-γ levels (CD8+ T cells [4]): significant loss of function
maximum tolerated dose (MTD) (CLL, MCL, NHL patients): No maximum tolerated dose (MTD) was apparent

Molecule: obinutuzumab: humanized monoclonal antibody directed against CD20, type II glycoengineered
response rate (CLL; Phase 1, previously treated CLL, monotherapy): 62%
infusion related reactions, Grade 3 (CLL; [5]): 15%
patients with all grade AE (infusion related reactions) (CLL; [5]): 100%
IRR cases developing symptoms of hypotension (CLL; Phase 2 portion): 60%
hypotension cases that were Grade 3 reactions (CLL; Phase 2 portion): 25%
patients who developed IRR (CLL; Phase 2 portion): 95%
